Data reported in patent US20040147532A1, “Liquid conjugates of solid pharmaceuticals” (Pfizer Inc, priority 2002, published 2004).
Values after ≈ are worked out from the molar mass of the structure shown. Structures can show the parent of a compound that is named as a salt.

Test: Solubility of ziprasidone from conjugates in phosphate buffered saline (HPLC)
Format: physicochemical
Conditions: PBS, continuous agitation; for Solubility of ziprasidone, Sample Conc., 20 min: time point 20 min; for Solubility of ziprasidone, Sample Conc., 7 days: time point 7 days
Procedure: For the solubility determination, all conjugate samples were placed in Eppendorf tubes with 1-ml aliquot of phosphate buffered saline (PBS), pH adjusted to 7.4. At selected time points (20 minutes, 1 hour, 6 hours, 24 hours, and 7 days), 200 µl of PBS exposed to each sample was withdrawn and replaced with fresh medium. The samples were continuously agitated for the duration of the study. To prepare HPLC samples, the 200-μl samples were filtered through 0.22-μm syringe, filter membrane, diluted as needed, and injected at appropriately adjusted volume to determine ziprasidone concentration in solution.

| Solubility of ziprasidone, Sample Conc., 20 min (pH 7.4) | Solubility of ziprasidone, Sample Conc., 7 days (pH 7.4) | Solubility of ziprasidone, Sample Conc., 6 hours (pH 7.4, time point 6 hours) | solubility at 24 h (phosphate buffered saline, pH 7.4, aqueous buffer, thermodynamic from solid, time point 24 hours, read-out: Solubility of ziprasidone, Sample Conc., 24 hours) | Structure (SMILES) |
| --- | --- | --- | --- | --- |
| 1.46 µg/mL | 1.31 µg/mL |  |  | O=C1Cc2cc(CCN3CCN(c4nsc5ccccc45)CC3)c(Cl)cc2N1 [Ziprasidone Mesylate] |
| 0.01 µg/mL | 0.01 µg/mL | 0.22 µg/mL | 2 µg/mL (≈ 4.84 µM) | O=C1Cc2cc(CCN3CCN(c4nsc5ccccc45)CC3)c(Cl)cc2N1 [Ziprasidone Free Base, 5-[2-[4-(1,2-benzisothiazol-3-yl)-1-piperazinyl]ethyl]-6-chloro-1,3-dihydro-2H-indol-2-one] |
